Test results: ChEMBL document CHEMBL1201862, “PubChem BioAssay data set” (2004)
Calls of active or inactive are those of the source.

Columns and labels:
[1] = biological target: Signal transducer and activator of transcription 3 (Homo sapiens, UniProt P40763); assay: STAT3 inhibitors, late-stage profile, late-stage follow-up, cell-based, STAT1 panel, qPCR, cytotoxicity, panel member STAT3 Inhibition (AID 2078)
[2] = biological target: Signal transducer and activator of transcription 1-alpha/beta (Homo sapiens, UniProt P42224); assay: STAT3 inhibitors, late-stage profile, late-stage follow-up, cell-based, STAT1 panel, qPCR, cytotoxicity, panel member STAT1 Inhibition (AID 2078)
Chain of Signal transducer and activator of transcription 1-alpha/beta (P42224 whole entry): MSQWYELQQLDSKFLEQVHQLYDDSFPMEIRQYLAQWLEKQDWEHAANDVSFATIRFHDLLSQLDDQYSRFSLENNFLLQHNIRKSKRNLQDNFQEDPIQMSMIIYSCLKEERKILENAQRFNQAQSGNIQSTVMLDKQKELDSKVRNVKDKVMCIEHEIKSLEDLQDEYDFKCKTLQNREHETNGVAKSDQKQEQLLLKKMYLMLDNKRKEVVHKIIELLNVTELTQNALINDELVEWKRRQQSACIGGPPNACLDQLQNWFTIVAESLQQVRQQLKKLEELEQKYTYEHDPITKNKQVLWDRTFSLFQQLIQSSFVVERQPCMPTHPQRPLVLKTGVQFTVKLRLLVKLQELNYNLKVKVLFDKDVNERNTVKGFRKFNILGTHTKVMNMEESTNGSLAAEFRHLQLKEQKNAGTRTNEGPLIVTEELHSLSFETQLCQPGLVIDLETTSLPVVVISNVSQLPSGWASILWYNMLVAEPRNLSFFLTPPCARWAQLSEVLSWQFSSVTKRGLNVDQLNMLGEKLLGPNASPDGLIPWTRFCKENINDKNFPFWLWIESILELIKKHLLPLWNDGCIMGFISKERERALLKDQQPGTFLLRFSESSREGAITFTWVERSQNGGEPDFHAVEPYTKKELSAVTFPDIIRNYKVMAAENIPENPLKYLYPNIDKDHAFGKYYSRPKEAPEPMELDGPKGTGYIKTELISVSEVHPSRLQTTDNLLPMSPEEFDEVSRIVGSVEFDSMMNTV

[3] = biological target: T1, Hexokinase HKDC1 (Homo sapiens, UniProt Q2TB90); assay: HKDC1 hexokinase activators, dose response, biochemical, W721R variant (AID 504730); assay type: functional
T1 sequence (Q2TB90 whole entry): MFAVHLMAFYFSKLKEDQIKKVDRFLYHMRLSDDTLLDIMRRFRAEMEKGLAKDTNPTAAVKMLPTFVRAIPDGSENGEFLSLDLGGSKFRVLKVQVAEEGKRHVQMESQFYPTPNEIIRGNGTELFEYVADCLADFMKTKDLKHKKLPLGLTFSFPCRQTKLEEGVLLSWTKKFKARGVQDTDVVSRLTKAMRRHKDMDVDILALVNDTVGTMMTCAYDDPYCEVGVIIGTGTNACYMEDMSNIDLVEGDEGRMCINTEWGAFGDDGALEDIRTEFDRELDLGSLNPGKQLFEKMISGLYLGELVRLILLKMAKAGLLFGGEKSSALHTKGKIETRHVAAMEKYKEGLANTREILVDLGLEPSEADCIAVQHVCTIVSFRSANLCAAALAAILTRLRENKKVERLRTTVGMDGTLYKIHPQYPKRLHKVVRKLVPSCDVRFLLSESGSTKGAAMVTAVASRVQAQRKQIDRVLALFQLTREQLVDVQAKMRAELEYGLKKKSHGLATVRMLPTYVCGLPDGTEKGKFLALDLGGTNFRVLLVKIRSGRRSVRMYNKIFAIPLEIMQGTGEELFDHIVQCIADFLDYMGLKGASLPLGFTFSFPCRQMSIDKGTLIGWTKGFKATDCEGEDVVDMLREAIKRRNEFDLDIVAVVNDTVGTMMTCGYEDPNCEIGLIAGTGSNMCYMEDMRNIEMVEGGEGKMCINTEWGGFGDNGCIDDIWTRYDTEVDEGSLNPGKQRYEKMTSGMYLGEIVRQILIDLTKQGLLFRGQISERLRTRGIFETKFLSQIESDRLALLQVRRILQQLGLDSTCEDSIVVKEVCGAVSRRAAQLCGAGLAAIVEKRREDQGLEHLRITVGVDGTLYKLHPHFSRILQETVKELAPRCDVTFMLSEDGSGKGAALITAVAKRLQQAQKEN

[4] = biological target: Nonstructural protein 1 (Influenza A virus, UniProt Q194T2); assay type: functional, Influenza A virus (A/California/07/2009(H1N1))
Chain of Nonstructural protein 1 (Q194T2 whole entry): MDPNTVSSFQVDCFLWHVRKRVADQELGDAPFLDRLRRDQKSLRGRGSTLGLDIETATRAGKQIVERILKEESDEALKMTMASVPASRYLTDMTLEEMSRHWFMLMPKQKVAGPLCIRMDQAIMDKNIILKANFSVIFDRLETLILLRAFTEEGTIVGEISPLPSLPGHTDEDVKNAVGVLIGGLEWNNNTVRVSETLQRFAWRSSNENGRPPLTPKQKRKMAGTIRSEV

[5] = biological target: Hexokinase-1 (Homo sapiens, UniProt P19367); assay: hexokinase 1 activators, dose response, selectivity assay for HKDC1 activator project, biochemical (AID 504762); assay type: functional
Chain of Hexokinase-1 (P19367 whole entry): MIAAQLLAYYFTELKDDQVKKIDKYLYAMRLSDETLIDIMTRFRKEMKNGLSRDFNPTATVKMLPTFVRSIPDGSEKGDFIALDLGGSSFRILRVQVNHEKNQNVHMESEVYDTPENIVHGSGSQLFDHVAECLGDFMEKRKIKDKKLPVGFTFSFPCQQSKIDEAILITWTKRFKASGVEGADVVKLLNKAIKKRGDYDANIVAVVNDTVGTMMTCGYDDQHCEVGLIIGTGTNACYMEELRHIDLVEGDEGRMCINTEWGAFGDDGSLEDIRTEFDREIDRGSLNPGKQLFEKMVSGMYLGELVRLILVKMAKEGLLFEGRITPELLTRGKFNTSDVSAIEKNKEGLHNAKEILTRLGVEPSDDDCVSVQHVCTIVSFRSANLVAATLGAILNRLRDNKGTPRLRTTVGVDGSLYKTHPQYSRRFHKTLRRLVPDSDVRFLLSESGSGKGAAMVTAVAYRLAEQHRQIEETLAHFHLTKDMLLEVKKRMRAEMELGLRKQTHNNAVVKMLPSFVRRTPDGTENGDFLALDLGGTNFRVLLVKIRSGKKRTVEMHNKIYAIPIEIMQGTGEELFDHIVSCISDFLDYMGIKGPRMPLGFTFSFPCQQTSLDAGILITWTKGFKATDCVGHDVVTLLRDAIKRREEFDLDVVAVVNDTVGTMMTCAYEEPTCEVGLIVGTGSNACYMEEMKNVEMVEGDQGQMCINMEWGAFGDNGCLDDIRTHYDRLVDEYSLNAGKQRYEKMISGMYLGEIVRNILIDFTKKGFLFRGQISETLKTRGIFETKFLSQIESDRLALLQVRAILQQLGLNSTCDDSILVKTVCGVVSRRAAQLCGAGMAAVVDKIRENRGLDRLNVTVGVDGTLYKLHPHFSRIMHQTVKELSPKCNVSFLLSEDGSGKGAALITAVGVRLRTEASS

[6] = test system: HEK293; assay: inhibitors of LMP1-driven NF-kB reporter, dose response, cell-based, HEK293, luciferase, cherry-pick (AID 588343); assay type: functional; settings: Homo sapiens
[7] = biological target: Heat shock protein HSP 90-alpha (Homo sapiens, UniProt P07900); assay type: functional, organism-based
[8] = NIH-3T3 fibroblast cytotoxicity, dose response, cytotoxicity control, cell-based, fluorescence, Alamar Blue, secondary assay (AID 2327); assay type: functional;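 note: NIH-3T3 mouse fibroblasts cultured with fluconazole at 8 µg/mL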
[9] = cells; assay type: functional, cell-based
[10] = C. albicans growth with fluconazole, confirmation, fluorescence, retest (AID 2467); assay type: functional, cell-based
[11] = cells; assay type: functional, cell-based; remark: listed apart in the source
[12] = biological target: T2, Serine/threonine-protein phosphatase (Candida dubliniensis (strain CD36 / CBS 7987 / NCPF 3949 / NRRLY-17841) (Yeast), UniProt B9W6M3); assay: calcineurin pathway inhibitors in yeast reporter, dose response, S. cerevisiae, CDRE-lacZ, luminescence, secondary (AID 2388); assay type: functional, cell-based;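 note: yeast reporter cells carrying a calcineurin-responsive lacZ construct stimulated with calcium chloride; luminescent beta-galactosidase reporter signal in whole cells rather than isolated phosphatase activity; potency for inhibition where a drop in reporter signal means calcineurin blockade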
T2 sequence (B9W6M3 whole entry): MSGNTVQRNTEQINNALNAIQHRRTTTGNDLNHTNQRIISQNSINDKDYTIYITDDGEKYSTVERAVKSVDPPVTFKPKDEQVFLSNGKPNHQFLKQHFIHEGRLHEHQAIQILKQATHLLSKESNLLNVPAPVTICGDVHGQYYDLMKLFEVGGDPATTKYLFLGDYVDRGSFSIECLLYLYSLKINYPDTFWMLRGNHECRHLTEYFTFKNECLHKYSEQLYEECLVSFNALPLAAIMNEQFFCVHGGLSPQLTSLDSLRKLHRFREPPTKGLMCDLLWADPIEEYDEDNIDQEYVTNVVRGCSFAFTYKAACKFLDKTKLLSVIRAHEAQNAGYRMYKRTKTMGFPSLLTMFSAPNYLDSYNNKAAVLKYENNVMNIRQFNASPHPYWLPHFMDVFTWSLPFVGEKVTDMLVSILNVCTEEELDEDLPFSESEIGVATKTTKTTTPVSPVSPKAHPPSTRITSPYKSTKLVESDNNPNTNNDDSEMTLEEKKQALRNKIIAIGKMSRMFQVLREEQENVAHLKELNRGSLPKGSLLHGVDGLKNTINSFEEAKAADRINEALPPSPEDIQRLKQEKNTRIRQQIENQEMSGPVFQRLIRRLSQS

[13] = THP-1 cell cytotoxicity, dose response, cytotoxicity control for non-replicating M. tuberculosis project (AID 489025); assay type: functional
[14] = HepG2 cell cytotoxicity, dose response, cytotoxicity control for non-replicating M. tuberculosis project (AID 489018); assay type: functional; settings: Mycobacterium tuberculosis
[15] = Vero E6 cell cytotoxicity, dose response, cytotoxicity control for non-replicating M. tuberculosis project, secondary assay (AID 492998); assay type: functional, VeroE6; settings: Vero C1008
[16] = test system: INS1; assay: beta cell apoptosis inhibitors, cytokine rescue, dose response, luminescence, retest (AID 449756); assay type: functional, cell-based; settings: Rattus norvegicus;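 note: cell death triggered by IL-1 beta plus TNF-alpha plus IFN-gamma mixture; protective hits raise ATP signal compared with cytokine alone wells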
[17] = biological target: ATP-dependent molecular chaperone HSP82 (Candida albicans (strain WO-1) (Yeast), UniProt C4YTQ8); assay: loss of DOC-induced GRE-beta-galactosidase reporter signal, dose response, Hsp90 inhibitor project, S. cerevisiae, luminescence (AID 2400); assay type: functional, cell-based;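 note: beta-galactosidase luminescence from glucocorticoid response element reporter as proxy for Hsp90 function; inhibitor potency where signal loss means Hsp90 inhibition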
Chain of ATP-dependent molecular chaperone HSP82 (C4YTQ8 whole entry): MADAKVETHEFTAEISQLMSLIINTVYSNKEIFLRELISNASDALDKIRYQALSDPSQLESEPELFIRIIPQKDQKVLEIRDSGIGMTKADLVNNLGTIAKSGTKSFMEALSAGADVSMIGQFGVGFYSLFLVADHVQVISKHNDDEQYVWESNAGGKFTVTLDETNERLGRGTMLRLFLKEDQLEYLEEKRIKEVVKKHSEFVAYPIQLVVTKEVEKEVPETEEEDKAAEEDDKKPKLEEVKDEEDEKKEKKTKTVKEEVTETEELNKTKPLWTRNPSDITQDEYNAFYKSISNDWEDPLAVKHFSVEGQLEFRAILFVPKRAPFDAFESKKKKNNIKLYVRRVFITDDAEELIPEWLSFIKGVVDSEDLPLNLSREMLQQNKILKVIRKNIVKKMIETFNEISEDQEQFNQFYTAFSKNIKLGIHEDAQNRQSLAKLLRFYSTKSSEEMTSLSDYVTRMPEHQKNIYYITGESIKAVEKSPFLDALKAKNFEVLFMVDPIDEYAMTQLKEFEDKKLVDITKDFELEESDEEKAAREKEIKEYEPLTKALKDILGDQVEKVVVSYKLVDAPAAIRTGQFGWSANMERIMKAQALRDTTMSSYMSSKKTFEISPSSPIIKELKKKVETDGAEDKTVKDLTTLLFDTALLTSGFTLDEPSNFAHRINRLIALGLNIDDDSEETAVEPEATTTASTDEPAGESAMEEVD

[18] = test system: HEK293; assay: NOD1 signaling inhibitors, primary screen, cell-based, luminescence, uHTS (AID 1578); assay type: functional; settings: Homo sapiens
[19] = test system: HEK293; assay: cells; assay type: functional, cell-based; settings: Homo sapiens
[20] = biological target: T3, Heat shock factor protein 1 (Mus musculus, UniProt P38532); assay: inhibition of MG132-induced HSE-luciferase signal, confirmation, cell-based, NIH3T3, luminescence, dose retest (AID 2382); assay type: functional;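 note: NIH3T3 fibroblasts with HSF1-driven luciferase reporter stressed by proteasome inhibitor MG132; luminescence from HSF1-driven luciferase expression after 8 hours of MG132 stress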
T3 sequence (P38532 whole entry): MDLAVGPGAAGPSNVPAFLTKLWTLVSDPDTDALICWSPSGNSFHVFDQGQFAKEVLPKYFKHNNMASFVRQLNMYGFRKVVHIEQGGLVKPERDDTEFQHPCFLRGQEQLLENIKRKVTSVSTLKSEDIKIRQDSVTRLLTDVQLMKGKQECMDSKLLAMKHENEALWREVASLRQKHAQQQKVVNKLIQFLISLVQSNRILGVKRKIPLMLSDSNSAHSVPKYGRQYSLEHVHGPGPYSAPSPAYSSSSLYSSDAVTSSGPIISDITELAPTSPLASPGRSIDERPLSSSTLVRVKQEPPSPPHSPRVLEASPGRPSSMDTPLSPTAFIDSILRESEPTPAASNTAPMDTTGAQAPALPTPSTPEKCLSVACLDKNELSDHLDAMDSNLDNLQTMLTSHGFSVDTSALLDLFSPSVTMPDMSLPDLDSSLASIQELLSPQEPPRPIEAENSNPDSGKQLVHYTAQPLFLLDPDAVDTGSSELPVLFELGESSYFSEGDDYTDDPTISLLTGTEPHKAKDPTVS

[21] = test system: HEK293; assay: cells; assay type: functional, cell-based; settings: Homo sapiens; remark: listed apart in the source
[22] = biological target: Nucleotide-binding oligomerization domain-containing protein 2 (Homo sapiens, UniProt Q9HC29); assay: NOD2 signaling inhibitors, cell-based, luminescence, uHTS, HEK293 (AID 1566); assay type: functional
Chain of Nucleotide-binding oligomerization domain-containing protein 2 (Q9HC29 whole entry, the tested form may be a part): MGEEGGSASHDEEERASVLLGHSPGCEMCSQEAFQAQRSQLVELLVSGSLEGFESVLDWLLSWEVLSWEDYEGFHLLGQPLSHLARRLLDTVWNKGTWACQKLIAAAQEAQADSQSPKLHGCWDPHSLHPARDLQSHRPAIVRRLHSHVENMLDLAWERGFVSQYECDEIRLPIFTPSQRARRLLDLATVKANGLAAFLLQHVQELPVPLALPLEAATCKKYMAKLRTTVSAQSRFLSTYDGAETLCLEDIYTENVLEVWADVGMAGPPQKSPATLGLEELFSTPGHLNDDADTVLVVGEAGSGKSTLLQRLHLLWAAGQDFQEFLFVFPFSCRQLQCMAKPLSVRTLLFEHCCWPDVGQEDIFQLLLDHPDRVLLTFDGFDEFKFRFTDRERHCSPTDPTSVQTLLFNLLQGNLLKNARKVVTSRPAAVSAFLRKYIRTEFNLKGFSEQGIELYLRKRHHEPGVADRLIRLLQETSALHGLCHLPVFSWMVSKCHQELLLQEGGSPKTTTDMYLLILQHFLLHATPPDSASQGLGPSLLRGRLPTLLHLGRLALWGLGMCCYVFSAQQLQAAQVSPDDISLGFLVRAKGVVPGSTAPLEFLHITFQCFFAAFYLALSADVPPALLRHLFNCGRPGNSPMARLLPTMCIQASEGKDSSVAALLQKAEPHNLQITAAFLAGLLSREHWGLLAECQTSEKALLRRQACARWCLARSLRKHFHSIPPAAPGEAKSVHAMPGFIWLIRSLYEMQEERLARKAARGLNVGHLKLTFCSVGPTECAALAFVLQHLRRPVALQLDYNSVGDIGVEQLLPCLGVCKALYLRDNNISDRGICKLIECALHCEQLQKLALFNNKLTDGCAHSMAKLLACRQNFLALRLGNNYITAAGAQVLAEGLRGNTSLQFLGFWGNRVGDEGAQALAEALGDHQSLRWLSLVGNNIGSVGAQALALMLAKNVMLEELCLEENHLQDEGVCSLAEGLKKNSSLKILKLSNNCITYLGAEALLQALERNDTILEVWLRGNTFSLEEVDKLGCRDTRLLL

[23] = test system: HEK293; assay: NOD2 signaling inhibitors in MDP-stimulated cells, cell-based, uHTS, luminescence (AID 2001); assay type: functional; settings: Homo sapiens
[24] = test system: HEK293; assay: cells; assay type: functional, cell-based; settings: Homo sapiens; remark: listed apart in the source

Chain of Signal transducer and activator of transcription 3 (P40763 whole entry): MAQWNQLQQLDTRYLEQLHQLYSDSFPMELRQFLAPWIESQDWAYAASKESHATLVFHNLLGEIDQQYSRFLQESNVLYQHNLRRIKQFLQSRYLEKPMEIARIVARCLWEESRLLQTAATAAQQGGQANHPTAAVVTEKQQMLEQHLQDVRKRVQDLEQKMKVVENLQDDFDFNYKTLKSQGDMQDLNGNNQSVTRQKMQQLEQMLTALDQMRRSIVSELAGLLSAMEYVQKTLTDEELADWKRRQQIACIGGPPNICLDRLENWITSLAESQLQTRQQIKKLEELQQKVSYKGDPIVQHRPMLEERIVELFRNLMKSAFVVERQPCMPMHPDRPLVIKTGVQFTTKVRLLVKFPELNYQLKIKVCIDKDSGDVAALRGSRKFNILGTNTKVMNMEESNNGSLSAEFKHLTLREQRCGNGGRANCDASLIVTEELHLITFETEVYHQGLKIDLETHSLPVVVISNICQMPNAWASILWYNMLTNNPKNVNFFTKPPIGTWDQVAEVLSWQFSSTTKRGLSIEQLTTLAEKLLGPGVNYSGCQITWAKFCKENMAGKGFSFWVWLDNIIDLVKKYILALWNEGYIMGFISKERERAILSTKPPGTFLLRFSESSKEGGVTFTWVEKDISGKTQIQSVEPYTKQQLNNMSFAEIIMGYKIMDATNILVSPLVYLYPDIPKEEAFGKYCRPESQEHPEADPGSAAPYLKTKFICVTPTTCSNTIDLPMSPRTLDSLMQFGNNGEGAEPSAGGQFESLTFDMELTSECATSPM

COC(=O)c1cc2c(N3CCC(Cc4ccccc4)CC3)ncnc2s1
IC50 [1]: > 18.6 µM (inactive) | IC50 [2]: > 55.7 µM (inactive)

CC(=NNC(=S)Nc1cccc(Cl)c1)c1ccccn1
EC50 [3]: 0.615 µM (active) | IC50 [4]: 15.4 µM (active) | EC50 [5]: > 80 µM (inactive) | AC50 [6]: 341 nM (active) | AC50 [7]: 16.2 µM (active)

O=C(N/N=C/c1ccccc1O)c1cccc(C(F)(F)F)c1
EC50 [8]: > 150 µM (inactive) | EC50 [9]: 7.53 µM (active) | EC50 [10]: 1.39 µM (active) | EC50 [11]: > 350 µM (not active) | EC50 [12]: > 180 µM (inactive) | CC50 [13]: 106 nM (active) | CC50 [14]: 6.7 µM (active) | CC50 [15]: 3.65 µM (active) | AC50 [16]: 1.11 µM (active) | EC50 [17]: > 150 µM (inactive)

CCCOc1ccc(/C=N/NC(=S)Nc2ccccc2[N+](=O)[O-])c(O)c1
EC50 [18]: 11.9 µM (active) | IC50 [19]: 1.82 µM (active) | EC50 [20]: 11 µM (active) | IC50 [21]: > 20 µM (inactive) | EC50 [22]: 780 nM (active) | IC50 [23]: 233 nM (active) | IC50 [24]: > 20 µM (inactive) | EC50 [3]: 26.5 µM (inactive) | EC50 [5]: > 80 µM (inactive) | AC50 [16]: 1.28 µM (active)
